According to US11596692B1 (Incyte Corporation, priority 2018, dated 2023):

Columns and labels:
[1] = molecular target: T1, PD-L1 (Homo sapiens (Human), UniProt Q9NZQ7); assay: PD-L1 surface levels on HEK293T STING reporter cells, high PD-L1; type: cell-based
Procedure: To determine PD-L1 expression on HEK cells after treatment of PD-L1-small molecule conjugated STING agonists, cells were harvested at 20 hours post-treatment. Single cell suspensions were then stained with phycoerythrin-conjugated anti-PD-L1 antibody (BD Bioscience), and the PD-L1 expression were then analyzed by flow cytometry. Mean fluorescence intensity was used as the relative level of surface PD-L1 expression on cells (FIG. 1 and Table 6).
Also, cells were stained with PE-conjugated anti-human PD-L1 antibody to determine surface PD-L1 expression. Cell acquisition was performed on BD LSRFortessa X-20 (BD Biosciences). Data was analyzed using FlowJo software. IC50 values were calculated using Prism Software.

[2] = test system: IRF3 activation in PD-L1 low HEK293T STING reporter cell line; assay: IRF3 activation in HEK293T STING reporter cells, low PD-L1; type: cell-based, human; conditions: 20 hours, read-out: IRF Activation EC50 (nM), Low PD-L1
Procedure: (§1) HEK293T STING reporter cell line was purchased from Invivogen and expressed low level of PD-L1. This cell line was then engineered at Incyte Research Institute to overexpress human PD-L1. Both PD-L1 high and PD-L1 low HEK293T cell lines were plated at 100,000 cells/100 μL/well in 10% fetal calf serum-containing DMEM culture medium in a 96-well flat bottom plate. Serial dilutions of PD-L1 small molecule-conjugated STING agonists were then added to the corresponding wells, and incubated for 20 hours at 37° C. In a competition study setting, 1 μM of a PD-L1 small molecule was added in the corresponding wells to compete with the binding of PD-L1 small molecule-conjugated STING agonists. At the end of the incubation, the culture supernatants were carefully removed from each well, and the amount of IRF3 activation was determined by adding Quanti-Blue substrate in accordance with the manufacturer's protocol.
(§2) 293T-Dual hSTING-R232 (ISG/KI-IFNb) cells that were generated from 293T-Dual Null (ISG/KI-IFNb) cells by stable transfection of the R232 isoform of human STING were purchased from Invivogen (Invivogen #293d-r232).
(§3) This cell line expresses an ISRE-inducible SEAP (secreted embryonic alkaline phosphatase) reporter construct, which monitors the activation of interferon regulatory factor (IRF) and its binding to ISRE (IFN-stimulated response elements). These reporter cells express low level of PD-L1. Human PD-L1 was then overexpressed in these cells through stable transfection.
(§4) These 293T-Dual hSTING-R232 reporter cells as well as293T-Dual hSTING-R232 reporter cells overexpressing huPD-L1 were treated with various concentrations of STING compounds for 20 hours. After 20 hours, interferon regulatory factor (IRF) activity was assessed by measuring SEAP levels in the supernatant using QUNTI-Blue. EC50 values were generated by curve fit in Prism software.

[3] = test system: IRF3 activation in PD-L1 high HEK293T STING reporter cell line; assay: IRF3 activation in HEK293T STING reporter cells, high PD-L1; type: cell-based, human; conditions: high PD-L1 cells, 20 hours; read-out: IRF Activation EC50 (nM), High PD-L1
Procedure: as §1, §2, §3, §4

[4] = molecular target: PD-1/PD-L1 (Homo sapiens (Human), UniProt Q9NZQ7); assay: PD-1/PD-L1 binding assay (Alphascreen)
Sequence of PD-1/PD-L1 (Q9NZQ7 19-238): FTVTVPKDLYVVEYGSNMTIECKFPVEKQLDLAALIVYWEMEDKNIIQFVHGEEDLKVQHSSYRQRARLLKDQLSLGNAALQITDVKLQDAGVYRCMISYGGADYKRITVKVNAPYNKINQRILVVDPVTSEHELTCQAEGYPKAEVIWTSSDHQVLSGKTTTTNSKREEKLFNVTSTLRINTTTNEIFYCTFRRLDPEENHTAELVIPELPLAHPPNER
Procedure: Binding assays were conducted in a low volume white 384-well polystyrene plate in a final volume of 20 μL. Compounds to be analyzed were first serially diluted in DMSO and added to the plate wells before the addition of other reaction components. The final concentration of DMSO in the assay was 1%. The assay was carried out at 25° C. in the PBS buffer (pH 7.4) with 0.05% Tween-20 and 0.1% BSA. Recombinant human PD-L1 protein (19-238) with a His-tag at the C-terminus was purchased from AcroBiosystems (PD1-H5229). Recombinant human PD-1 protein (25-167) with Fc tag at the C-terminus was also from AcroBiosystems (PD1-H5257). PD-L1 and PD-1 proteins were diluted in the assay buffer (final concentration—0.67 and 0.20 nM respectively) and 10 μL was added to the plate well. Plates were centrifuged and proteins were preincubated with compounds for 40 minutes. The incubation was followed by the addition of 10 μL of assay buffer supplemented with Alphascreen Ni chelate donor beads (PerkinElmer—AS101D) and Protein A Acceptor beads (PerkinElmer—6760137) at final concentration 2.5 μg/mL under reduced light. After plate sealing, the plate was incubated in the dark at room temperature for 120 minutes before reading on a PHERAstar FS plate reader (BMG Labtech). IC50 determination was performed by fitting the curve of percent control activity versus the log of the compound concentration using the GraphPad Prism 5.0 software.

[5] = molecular target: T1, PD-L1; assay: Indirect whole blood PD-L1 internalization assay; type: cell-based; conditions: interferon γ, 18 hours, CD14+ gated
Procedure: To determine PD-L1 internalization in human whole blood, normal human blood (Biological Specialty Corp, Colmar. Pa.) was incubated in the presence or absence of a concentration range of test compounds and 1 ng/ml human interferon γ (R&D Systems Inc. Minn. Minn.) in a 96 well round bottom plate (Corning, Corning, N.Y.) for 18 hours at 37° C. Blood was then transferred into 96 well “2 ml Assay Block” (Corning, Corning N.Y.) and stained with PD-L1 (MIH1, eBioscience; or BD Biosciences San Jose, Calif.), CD14 (Life Technologies, Carlsbad, Calif.) for 30 minutes in the dark at room temperature. Whole Blood/red cells were lysed/fixed (lysis buffer BD Biosciences) for 5 minutes at 37° C. in dark and then centrifuged at 1600 RPM for 5 minutes and cells were transferred into 96 well round bottom plates (Corning). Cells were gated on CD14+ (BD Biosciences) and PD-L1 expression determined by mean fluorescence intensity (MFI) (BD LSRFortessa™ X-20). IC50 determination was performed by fitting the curve of compound percent inhibition versus the log of the compound concentration using the GraphPad Prism 7.0 software.

T1 sequence (Q9NZQ7 19-290): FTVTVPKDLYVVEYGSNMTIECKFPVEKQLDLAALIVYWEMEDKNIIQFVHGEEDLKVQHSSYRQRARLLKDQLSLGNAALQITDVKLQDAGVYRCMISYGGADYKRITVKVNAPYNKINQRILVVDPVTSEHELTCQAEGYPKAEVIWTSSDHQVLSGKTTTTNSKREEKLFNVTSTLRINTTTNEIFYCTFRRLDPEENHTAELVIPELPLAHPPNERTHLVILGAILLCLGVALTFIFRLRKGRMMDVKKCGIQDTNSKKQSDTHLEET

Structure (SMILES) | IC50 [1] [nM] | EC50 [2] [nM] | EC50 [3] [nM] | IC50 [4] [nM] | IC50 [5] [nM]
CCn1nc(C)cc1C(=O)Nc1nc2cc(C(N)=O)cc(OC)c2n1C/C=C/Cn1c(NC(=O)c2cc(C)nn2CC)nc2cc(C(N)=O)cc(OCCCNC(=O)[C@H](CC(=O)O)NC(=O)[C@H](CC(=O)O)NC(=O)[C@H](CCCNC(=N)N)NC(=O)[C@H](CC(=O)O)NC(=O)[C@H](CC(=O)O)NC(=O)[C@H](CC(=O)O)NC(=O)[C@H](CCCNC(=N)N)NC(=O)[C@H](CC(=O)O)NC(=O)CCCN3CCc4c(nc(C(=O)Nc5cccc(-c6cccc(NC(=O)c7nc8c(n7C)CCN(CCCC(=O)O)C8)c6Cl)c5Cl)n4C)C3)c21 [Example 15] | < 50 | 50 to 200 | < 50 |  | 
CCn1nc(C)cc1C(=O)Nc1nc2cc(C(N)=O)cc(OC)c2n1C/C=C/Cn1c(NC(=O)c2cc(C)nn2CC)nc2cc(C(N)=O)cc(OCCCNC(=O)[C@H](CC(=O)O)NC(=O)[C@H](CCCNC(=N)N)NC(=O)[C@H](CC(=O)O)NC(=O)[C@H](CC(=O)O)NC(=O)CCCN3CCc4c(nc(C(=O)Nc5cccc(-c6cccc(NC(=O)c7nc8c(n7C)CCN(CCCC(=O)O)C8)c6Cl)c5Cl)n4C)C3)c21 [Example 16] | < 50 | < 50 | < 50 |  | 
CCn1nc(C)cc1C(=O)Nc1nc2cc(C(N)=O)cc(OC)c2n1C/C=C/Cn1c(NC(=O)c2cc(C)nn2CC)nc2cc(C(N)=O)cc(OCCCNC(=O)[C@H](CC(=O)O)NC(=O)[C@H](CC(=O)O)NC(=O)[C@H](CC(=O)O)NC(=O)[C@H](CCCNC(=N)N)NC(=O)CCCN3CCc4c(nc(C(=O)Nc5cccc(-c6cccc(NC(=O)c7nc8c(n7C)CCN(CCCC(=O)O)C8)c6Cl)c5Cl)n4C)C3)c21 [Example 17] | < 50 | 50 to 200 | < 50 |  | 
CCn1nc(C)cc1C(=O)Nc1nc2cc(C(N)=O)cc(OC)c2n1C/C=C/Cn1c(NC(=O)c2cc(C)nn2CC)nc2cc(C(N)=O)cc(OCCCNC(=O)[C@H](CC(=O)O)NC(=O)[C@H](CC(=O)O)NC(=O)[C@H](CCCCN)NC(=O)[C@H](CC(=O)O)NC(=O)CCCN3CCc4c(nc(C(=O)Nc5cccc(-c6cccc(NC(=O)c7nc8c(n7C)CCN(CCCC(=O)O)C8)c6Cl)c5Cl)n4C)C3)c21 [Example 18] | < 50 | < 50 | < 50 |  | 
CCn1nc(C)cc1C(=O)Nc1nc2cc(C(N)=O)cc(OC)c2n1C/C=C/Cn1c(NC(=O)c2cc(C)nn2CC)nc2cc(C(N)=O)cc(OCCCNC(=O)[C@H](CCC(=O)O)NC(=O)[C@H](CCC(=O)O)NC(=O)[C@H](CCCNC(=N)N)NC(=O)[C@H](CCC(=O)O)NC(=O)CCCN3CCc4c(nc(C(=O)Nc5cccc(-c6cccc(NC(=O)c7nc8c(n7C)CCN(CCCC(=O)O)C8)c6Cl)c5Cl)n4C)C3)c21 [Example 19] | < 50 | 50 to 200 | < 50 |  | 
CCn1nc(C)cc1C(=O)Nc1nc2cc(C(N)=O)cc(OC)c2n1C/C=C/Cn1c(NC(=O)c2cc(C)nn2CC)nc2cc(C(N)=O)cc(OCCCNC(=O)[C@@H](NC(=O)[C@H](CC(=O)O)NC(=O)[C@H](CC(=O)O)NC(=O)[C@H](CCCNC(=N)N)NC(=O)[C@H](CC(=O)O)NC(=O)CCCN3CCc4c(nc(C(=O)Nc5cccc(-c6cccc(NC(=O)c7nc8c(n7C)CCN(CCCC(=O)O)C8)c6Cl)c5Cl)n4C)C3)C(C)(C)C)c21 [Example 20] | < 50 | 50 to 200 | < 50 |  | 
CCn1nc(C)cc1C(=O)Nc1nc2cc(C(N)=O)cc(OCCCNC(=O)[C@H](CC(=O)O)NC(=O)[C@H](CC(=O)O)NC(=O)[C@H](CCCNC(N)=O)NC(=O)[C@H](CC(=O)O)NC(=O)CCCN3CCc4c(nc(C(=O)Nc5cccc(-c6cccc(NC(=O)c7nc8c(n7C)CCN(CCCC(=O)O)C8)c6Cl)c5Cl)n4C)C3)c2n1C/C=C/Cn1c2nc(-c3cc(C)nn3CC)ncc2c2cc(C(N)=O)cc(OC)c21 [Example 21] | < 50 | 50 to 200 | < 50 |  | 
CCn1nc(C)cc1C(=O)Nc1nc2cc(C(N)=O)cc(OCCCNC(=O)[C@H](CC(=O)O)NC(=O)[C@H](CC(=O)O)NC(=O)[C@H](CCCNC(=N)N)NC(=O)[C@H](CC(=O)O)NC(=O)[C@H](CC(=O)O)NC(=O)[C@H](CC(=O)O)NC(=O)[C@H](CCCNC(=N)N)NC(=O)[C@H](CC(=O)O)NC(=O)CCCN3CCc4c(nc(C(=O)Nc5cccc(-c6cccc(NC(=O)c7nc8c(n7C)CCN(CCCC(=O)O)C8)c6Cl)c5Cl)n4C)C3)c2n1C/C=C/Cn1c2nc(-c3cc(C)nn3CC)ncc2c2cc(C(N)=O)cc(OC)c21 [Example 22] | < 50 | < 50 | < 50 |  | 
CCn1nc(C)cc1C(=O)Nc1nc2cc(C(N)=O)cc(OCCCNC(=O)[C@H](CC(=O)O)NC(=O)[C@H](CC(=O)O)NC(=O)[C@H](CCCNC(=N)N)NC(=O)[C@H](CC(=O)O)NC(=O)CCCN3CCc4c(nc(C(=O)Nc5cccc(-c6cccc(NC(=O)c7nc8c(n7C)CCN(CCCC(=O)O)C8)c6Cl)c5Cl)n4C)C3)c2n1C/C=C/Cn1c2nc(-c3cc(C)nn3CC)ncc2c2cc(C(N)=O)cc(OCCCOC)c21 [Example 23] | < 50 | 50 to 200 | < 50 |  | 
CCn1nc(C)cc1C(=O)Nc1nc2cc(C(N)=O)cc(OCCCNC(=O)OCCNC(=O)[C@H](CC(=O)O)NC(=O)[C@H](CC(=O)O)NC(=O)[C@H](CCCNC(=N)N)NC(=O)[C@H](CC(=O)O)NC(=O)CCCN3CCc4c(nc(C(=O)Nc5cccc(-c6cccc(NC(=O)c7nc8c(n7C)CCN(CCCC(=O)O)C8)c6Cl)c5Cl)n4C)C3)c2n1C/C=C/Cn1c2nc(-c3cc(C)nn3CC)ncc2c2cc(C(N)=O)cc(OC)c21 [Example 24] | < 50 | < 50 | < 50 |  | 
Cc1c(NC(=O)c2nc3c(n2C)CCN(C2CCOCC2)C3)cccc1-c1cccc(NC(=O)c2nc3c(n2C)CCN(C)C3)c1Cl [Example P9] |  |  |  | 0.1 to 1 | < 100
Cc1c(Nc2nccc3cc(CN4CC[C@@H](O)C4)cnc23)cccc1-c1cccc(-c2nc3cc(CN4CC[C@@H](C(=O)O)C4)cc(C#N)c3o2)c1C [Example P15] |  |  |  | 0.1 to 1 | 100 to 1000
Cc1c(Nc2nccc3cc(CN4CC[C@@H](O)C4)cnc23)cccc1-c1cccc(Nc2nccc3cc(CN4CC[C@@H](C(=O)O)C4)cnc23)c1C [Example P18] |  |  |  | 0.1 to 1 | 100 to 1000
Cc1c(Nc2nccc3cc(CN4CC[C@@H](O)C4)cnc23)cccc1-c1cccc(-c2nc3cc(CN4CC(C(=O)O)C4)cc(C#N)c3o2)c1C [Example P20] |  |  |  | 0.1 to 1 | 100 to 1000
Cc1c(-c2nc3cc(CN4CC[C@@H](C(=O)O)C4)cc(C#N)c3o2)cccc1-c1cccc(NC(=O)c2nc3c(n2C)CCN(C)C3)c1Cl [Example P22] |  |  |  | 0.1 to 1 | < 100
